Laboratory results: paper PMC7722249 (Journal of medicinal chemistry, 2019)
Read-outs that look alike come from different tables or passages of the source. Blank lines part the entries; values can stand above or below the compound they belong to.

Experiments:
CFU-GM lineage = experiment: Bone marrow toxicity, CFU-GM; type: cell-based, human; settings: human, Cytotoxicity IC50, bone marrow CFU-GM, three separate donors
BFU-E lineage = experiment: Bone marrow toxicity, BFU-E; type: cell-based, human; settings: human, Cytotoxicity IC50, bone marrow BFU-E, three separate donors
[1] = HepG2 cytotoxicity, 3 day, glucose/galactose media; type: cell-based; settings: human
HepG2 cells = settings: HepG2, 14 day; for mitochondrial toxicity: at 10 μM
[2] = system: colony-forming unit-granulocyte, macrophage (CFU-GM) lineage; experiment: Bone marrow toxicity, CFU-GM; type: cell-based, human; settings: positive control, at the concentration tested
[3] = system: burst forming unit-erythroid (BFU-E) lineage; experiment: Bone marrow toxicity, BFU-E; type: cell-based, human; settings: positive control, at the concentration tested
in vitro [4] = settings: African green monkey
[5] = Stability in simulated intestinal fluid; settings: 37 °C
[6] = molecular target: T1, human ether-à-go-go-related gene (hERG) potassium channels (Homo sapiens, UniProt Q12809); experiment: hERG whole-cell patch clamp in CHO cells; type: cell-based
T1 sequence (Q12809 whole entry): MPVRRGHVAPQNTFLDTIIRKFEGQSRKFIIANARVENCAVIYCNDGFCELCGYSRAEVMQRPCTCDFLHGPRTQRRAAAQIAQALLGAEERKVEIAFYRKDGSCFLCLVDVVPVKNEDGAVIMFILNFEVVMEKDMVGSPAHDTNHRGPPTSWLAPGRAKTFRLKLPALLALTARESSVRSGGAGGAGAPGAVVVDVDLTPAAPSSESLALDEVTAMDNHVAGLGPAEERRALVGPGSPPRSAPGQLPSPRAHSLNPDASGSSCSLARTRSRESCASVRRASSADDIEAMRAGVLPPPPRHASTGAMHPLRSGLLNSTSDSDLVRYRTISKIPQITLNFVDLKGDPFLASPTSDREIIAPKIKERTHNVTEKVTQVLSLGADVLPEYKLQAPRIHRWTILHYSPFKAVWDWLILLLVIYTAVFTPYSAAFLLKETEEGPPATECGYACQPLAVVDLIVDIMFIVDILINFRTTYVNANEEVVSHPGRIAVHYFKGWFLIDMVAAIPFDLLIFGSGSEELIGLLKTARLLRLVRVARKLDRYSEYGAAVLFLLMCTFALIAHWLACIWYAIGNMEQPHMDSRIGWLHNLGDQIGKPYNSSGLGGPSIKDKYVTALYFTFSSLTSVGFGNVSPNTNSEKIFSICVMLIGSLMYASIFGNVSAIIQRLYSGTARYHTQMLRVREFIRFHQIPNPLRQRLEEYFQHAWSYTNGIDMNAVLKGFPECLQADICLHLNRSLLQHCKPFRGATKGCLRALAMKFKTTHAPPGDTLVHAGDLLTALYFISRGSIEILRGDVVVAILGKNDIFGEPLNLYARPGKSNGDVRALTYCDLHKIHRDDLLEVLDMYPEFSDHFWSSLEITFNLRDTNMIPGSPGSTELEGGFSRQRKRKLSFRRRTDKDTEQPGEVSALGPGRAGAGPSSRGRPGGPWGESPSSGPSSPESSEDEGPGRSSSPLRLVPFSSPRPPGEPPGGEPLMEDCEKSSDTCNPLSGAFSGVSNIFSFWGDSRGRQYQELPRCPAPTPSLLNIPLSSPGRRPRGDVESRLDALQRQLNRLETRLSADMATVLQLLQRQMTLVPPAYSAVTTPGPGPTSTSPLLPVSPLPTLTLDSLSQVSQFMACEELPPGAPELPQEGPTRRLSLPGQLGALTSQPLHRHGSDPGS

[7] = Stability in human intestinal microsomes
[8] = HepG2 cytotoxicity, 14 day, glucose/galactose media; type: cell-based; settings: human
HCV GT2a = experiment: GT2a infectious assay in Huh-7 cells; type: cell-based; settings: Hepatitis C virus, Huh-7, read-out: EC90 GT2a
in vitro [9] = settings: human, microsomes
[10] = Cardiac toxicity in stem cell-induced ventricular cardiomyocytes; settings: human
[11] = Stability in simulated gastric fluid; type: physicochemical; settings: 37 °C
[12] = system: HCV GT1b/5a chimeric replicon; experiment: Chimeric replicon GT1b/5a in Huh-7 cells; type: cell-based; settings: Hepatitis C virus, Huh-7, read-out: EC90 GT1b/5a
[13] = for Clint(liver): scaled from Clint(mic)
[14] = system: HCV GT1b/4a chimeric replicon; experiment: Chimeric replicon GT1b/4a in Huh-7 cells; type: cell-based; settings: Hepatitis C virus, Huh-7, read-out: EC90 GT1b/4a
[15] = system: Salmonella typhimurium (TA98, TA100, TA1535, and TA1537) and Escherichia coli WP2 uvrA (pKM101); experiment: Mini Ames reverse mutation study; settings: with and without S9 mix
[16] = system: HCV GT1b/3a chimeric replicon; experiment: Chimeric replicon GT1b/3a in Huh-7 cells; type: cell-based; settings: Hepatitis C virus, Huh-7, read-out: EC90 GT1b/3a
HCV GT1b-WT replicon = experiment: GT1b stably transfected replicon in Huh-7 cells; type: cell-based; settings: Hepatitis C virus; for EC50: Huh-7, read-out: EC50 GT1b-WT; for EC90: Huh-7, read-out: EC90 GT1b-WT
[17] = In vitro nephrotoxicity in HK-2 cells, 3 day assay; settings: human
[18] = molecular target: T1, human ether-à-go-go-related gene (hERG) potassium channels; settings: cited from earlier work
[19] = system: Salmonella typhimurium (TA98, TA100, TA1535, and TA1537) and Escherichia coli WP2 uvrA (pKM101); settings: cited from earlier work
DNA polymerase γ = molecular target: T2, DNA polymerase γ (Homo sapiens, UniProt P54098); experiment: Human DNA polymerase γ inhibition; type: biochemical
T2 sequence (P54098 1-1239): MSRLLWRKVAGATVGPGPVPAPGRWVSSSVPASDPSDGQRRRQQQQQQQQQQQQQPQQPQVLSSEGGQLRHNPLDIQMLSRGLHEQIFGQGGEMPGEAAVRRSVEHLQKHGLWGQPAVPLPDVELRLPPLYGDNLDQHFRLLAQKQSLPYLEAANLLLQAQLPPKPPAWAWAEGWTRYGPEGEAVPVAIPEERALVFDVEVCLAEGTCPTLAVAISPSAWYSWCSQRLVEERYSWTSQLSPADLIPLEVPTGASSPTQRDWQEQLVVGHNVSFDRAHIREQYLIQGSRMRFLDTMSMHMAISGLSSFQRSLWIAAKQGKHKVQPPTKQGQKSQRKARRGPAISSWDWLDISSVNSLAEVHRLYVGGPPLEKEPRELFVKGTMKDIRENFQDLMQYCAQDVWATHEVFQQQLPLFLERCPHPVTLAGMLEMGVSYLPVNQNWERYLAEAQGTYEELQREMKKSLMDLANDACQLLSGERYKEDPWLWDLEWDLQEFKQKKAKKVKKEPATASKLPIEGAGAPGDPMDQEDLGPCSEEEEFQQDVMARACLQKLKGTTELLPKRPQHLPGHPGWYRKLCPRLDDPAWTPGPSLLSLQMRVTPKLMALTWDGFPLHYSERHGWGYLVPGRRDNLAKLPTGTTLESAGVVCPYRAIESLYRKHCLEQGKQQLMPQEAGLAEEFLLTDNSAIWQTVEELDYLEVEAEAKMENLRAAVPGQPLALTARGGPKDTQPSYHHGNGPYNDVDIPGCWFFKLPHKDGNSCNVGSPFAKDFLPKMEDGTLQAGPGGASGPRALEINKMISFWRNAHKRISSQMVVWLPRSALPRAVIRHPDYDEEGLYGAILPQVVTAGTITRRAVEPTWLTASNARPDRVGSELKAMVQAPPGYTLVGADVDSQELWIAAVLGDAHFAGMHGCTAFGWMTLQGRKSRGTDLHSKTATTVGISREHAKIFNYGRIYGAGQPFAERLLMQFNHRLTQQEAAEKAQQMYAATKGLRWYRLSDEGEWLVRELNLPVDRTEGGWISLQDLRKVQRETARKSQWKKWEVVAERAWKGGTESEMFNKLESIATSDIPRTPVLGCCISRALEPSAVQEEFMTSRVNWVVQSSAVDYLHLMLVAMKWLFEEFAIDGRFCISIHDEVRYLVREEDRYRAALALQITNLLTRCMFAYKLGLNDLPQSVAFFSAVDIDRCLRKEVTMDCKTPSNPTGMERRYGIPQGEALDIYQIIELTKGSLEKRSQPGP

DNA polymerase β = DNA polymerase β (Homo sapiens, UniProt P06746); experiment: Human DNA polymerase β inhibition; type: biochemical

Compound: CC(C)OC(=O)[C@H](C)NP(=O)(OC[C@H]1O[C@@H](n2ccc(=O)[nH]c2=O)[C@](F)(Br)[C@H]1O)Oc1ccccc1 (mixture of isomers) [Compound 14]
IC50 (CFU-GM lineage): > 100000 nM
IC50 (BFU-E lineage): > 100000 nM
IC50 at 3 days [1]: > 100000 nM
MtDNA content % of control (range) (HepG2 cells; 50 μM): 100 (99–104) % of control
measurable mitochondrial toxicity (none up to) (HepG2 cells): > 50 µM

Compound: Cc1cn([C@H]2C[C@H](N=[N+]=[N-])[C@@H](CO)O2)c(=O)[nH]c1=O [AZT, reference compound]
toxicity in myelomonocytic progenitors [2]: high toxicity
toxicity in erythroid progenitors [3]: high toxicity

Compound: O=c1ccn([C@@H]2O[C@H](CO)[C@@H](O)[C@]2(F)Br)c(=O)[nH]1 [Compound 12, 1-((2R, 3S, 4R, 5R)-3-Bromo-3-fluoro-4-hydroxy-5-(hydroxymethyl)tetrahydrofuran-2-yl)pyrimidine-2,4(1H,3H)-dione]
IC50 (CFU-GM lineage): > 100000 nM
CC50 (in vitro [4]): > 100000 nM
MtDNA content % of control (range) (HepG2 cells; 50 μM): 72 (63–83) % of control
lactic acid production (% of control) (HepG2 cells; 50 μM): 69 ± 14 % of control
measurable mitochondrial toxicity (none up to) (HepG2 cells): > 50 µM

Compound: CC(C)OC(=O)[C@H](C)N[P@@](=O)(OC[C@H]1O[C@@H](n2ccc(=O)[nH]c2=O)[C@@](F)(Br)[C@@H]1O)Oc1ccccc1 [Compound 27, Isopropyl ((R)-(((2R,3R,4S,5R)-4-Bromo-5-(2,4-dioxo-3,4-dihydro-pyrimidin-1(2H)-yl)-4-fluoro-3-hydroxytetrahydrofuran-2-yl)-methoxy)(phenoxy)phosphoryl)-L-alaninate]
stability in simulated intestinal fluid (24 h) [5]: stable
IC50 [6]: > 30000 nM
half-life [7]: 132 min
IC50 at 14 days [8]: > 100000 nM
IC50 (CFU-GM lineage): > 100000 nM
EC90 (HCV GT2a): 830 ± 10 nM
half-life (in vitro [9]): 18.4 min
microsomal CLint (in vitro [9]): 75.3 µL/min/mg
IC50 (BFU-E lineage): > 100000 nM
IC50 [10]: > 100000 nM
simulated gastric fluid (24 h), loss [11]: ~2% loss
EC90 [12]: 800 ± 1500 nM
IC50 at 3 days [1]: > 100000 nM
CC50 (in vitro [4]): > 100000 nM
Clint(liver) [13]: 67.8 mL/min/kg
EC90 [14]: 870 ± 230 nM
mutagenicity (mini Ames) [15]: negative for mutagenicity
EC90 [16]: 1600 ± 20 nM
MtDNA content % of control (range) (HepG2 cells; 50 μM): 65 (65–65) % of control
lactic acid production (% of control) (HepG2 cells; 50 μM): 100 ± 6.2 % of control
EC50 (HCV GT1b-WT replicon): 92 nM

Compound: CC(C)OC(=O)[C@H](C)N[P@](=O)(OC[C@H]1O[C@@H](n2ccc(=O)[nH]c2=O)[C@@](F)(Br)[C@@H]1O)Oc1ccccc1 [Compound 28, Isopropyl ((S)-(((2R,3R,4S,5R)-4-Bromo-5-(2,4-dioxo-3,4-dihydro-pyrimidin-1(2H)-yl)-4-fluoro-3-hydroxytetrahydrofuran-2-yl)-methoxy)(phenoxy)phosphoryl)-L-alaninate]
stability in simulated intestinal fluid (24 h) [5]: stable
IC50 [6]: > 30000 nM
half-life [7]: > 145 min
IC50 at 14 days [8]: > 100000 nM
EC90 (HCV GT2a): 77 nM
half-life (in vitro [9]): 19.7 min
microsomal CLint (in vitro [9]): 70.2 µL/min/mg
IC50 [10]: > 100000 nM
simulated gastric fluid (24 h), loss [11]: ~2% loss
EC90 [12]: 83 ± 20 nM
IC50 at 3 days [1]: > 100000 nM
CC50 (in vitro [4]): > 100000 nM
remaining after 60 min ([13]; human liver microsomes): 3%
Clint(liver) [13]: 63.2 mL/min/kg
EC90 [14]: 130 ± 3 nM
mutagenicity (mini Ames) [15]: negative for mutagenicity
MtDNA content % of control (range) (HepG2 cells; 12.5 μM): 86 (79–93) % of control
MtDNA content % of control (range) (HepG2 cells; 25 μM): 110 (110–110) % of control
MtDNA content % of control (range) (HepG2 cells; 50 μM): 150 (150–150) % of control
mitochondrial toxicity (HepG2 cells): no mitochondrial toxicity
EC90 (HCV GT1b-WT replicon): 74 ± 2 nM

Compound: CC(C)OC(=O)[C@H](C)N[P@](=O)(OC[C@H]1O[C@@H](n2ccc(=O)[nH]c2=O)[C@](C)(F)[C@@H]1O)Oc1ccccc1 [SOF, sofosbuvir, reference compound]
IC50 at 3 days [17]: > 300000 nM
hERG channel inhibition [18]: free from hERG channel inhibition
IC50 [10]: > 100000 nM
mutagenicity [19]: negative for mutagenicity
EC90 [16]: 370 ± 10 nM
MtDNA content % of control (range) (HepG2 cells; 12.5 μM): 96 (90–100) % of control
MtDNA content % of control (range) (HepG2 cells; 50 μM): 130 (120–150) % of control
EC50 (HCV GT1b-WT replicon): 34 nM
EC90 (HCV GT1b-WT replicon): 150 ± 30 nM

Compound: Nc1ccn([C@H]2CC[C@@H](CO)O2)c(=O)n1 [ddC, β-D-2′,3′-dideoxycytidine, reference compound]
MtDNA content % of control (range) (HepG2 cells; 10 μM): 7.3 % of control
mitochondrial toxicity (HepG2 cells): highly toxic

Compound: Cc1cn([C@H]2CC[C@@H](COP(=O)(O)OP(=O)(O)OP(=O)(O)O)O2)c(=O)[nH]c1=O [ddTTP]
IC50 (DNA polymerase γ): 100 ± 70 nM
IC50 (DNA polymerase β): 8400 ± 110 nM

microsomal CLint (in vitro [9]): 129 µL/min/mg
Compound: O=C(O)Cc1ccccc1Nc1c(Cl)cccc1Cl [diclofenac, reference compound]
